These are literature values, as cited in patent publication US12161661B2, “Topical composition for destroying, in vivo, an external hyperplastic tissue, such as, but not limited to, a viral skin lesion, such as, but not limited to, a viral wart” (priority 2022, dated 2024).

Where two headings read alike, the source gives them in different places.

In data set [1] the test system is warts of the hands and legs. To be noted: 5% cream once a day for 4 weeks, with occlusion.
For data set [2], the system named is plantar warts. To be noted: 12 weeks; 19/20.
For data set [3], the system named is warts.
The test system of data set [4] is warts on the palms and soles.
Data set [5] relates to plantar warts. To be noted: 10% solution.
The subject of data set [6] is warts. The source holds these as a separate data set.
The next data set deals with periungual warts. To be noted: once in two weeks for 6 weeks, after fractional CO2 laser.
The test system of data set [7] is warts on the hands and feet. To be noted: plus light source PDL.
The subject of data set [8] is flat warts on the face. To be noted: 0.7% cantharidin, over 16 weeks on average.
In data set [9] the test system is warts. To be noted: oral, within 3 months, children aged 2.5-12.5 years; 16/20.
For data set [10], the system named is flat warts on the face. To be noted: after 2 months, 0.5 mg/kg. per day.
Data set [11] deals with warts. To be noted: 80% solution every week for 6 weeks.
Data set [12] relates to warts. This is another data set of the same source.
The test system of data set [13] is warts. This is another data set of the same source.
Data set [14] concerns warts. To be noted: 1 of 30.
Setting [15] is: 15-26% salicylic acid locally every day for 3 to 4 months.

Consider `O=c1[nH]cc(F)c(=O)[nH]1` [5-FU, Ftoruracil], for which the “warts cleared at the end of treatment” value in [1] is 60%. Further, the “complete cure, patients” value in the data set on plantar warts [2] is 95%.
In the case of `Nc1ccn(C[C@@H](CO)OCP(=O)(O)O)c(=O)n1` [Cidofovir], the resolution of warts in the data set with warts [3] (average of 3.2 injections per course) is 98%. In addition, the side effects result in the data set on warts [3] (in vivo) was “nephrotoxicity, neutropenia, and metabolic acidosis”.
On to `O=c1c(-c2ccccc2)c1-c1ccccc1` [DPC, Diphenylcyclopropenone], for which the “complete disappearance of warts” value in [4] (48 patients treated with DPC) is 88%. For the same compound, the average processing time in [4] (human, in vivo) is listed as 5 months. For the same compound, the recurrence result in [4] (within 2 years) is “no recurrence was observed”.
With `O=CCCCC=O` [Glutaraldehyde], in the data set with plantar warts [5], the “efficiency compared with salicylic acid” value was “equivalent to the solution of salicylic acid”. Besides, in the data set with resistant warts (25 patients), the effectiveness is 72%. Further, the tolerability entry with resistant warts (human, in vivo) is reported as “well tolerated”.
In the case of `CC(C)Cn1cnc2c(N)nc3ccccc3c21` [Imiquimod], the “curing, patients” value in the data set on warts [6] (9.5 weeks, 50 patients of whom 19 had immunosuppression) is given as 56%. The “patients with a 50% egression of warts” value in the data set with warts [6] (twice daily for up to 24 weeks) is given as 76%.
Take `COC(=O)CCC(=O)CN` [MAL-PDT, methyl5-aminolaevuninic acid]: the cure rate in the data set on periungual warts was 90%. In addition, the “resolution of treated warts” value in [7] is listed as 53%.
As to `C[C@@]12C(=O)OC(=O)[C@]1(C)[C@H]1CC[C@@H]2O1` [cantharidin], the cure result in the data set with flat warts on the face [8] was “cure in all 15 patients”.
For the compound `CCOC(=O)/C=C(C)/C=C/C=C(C)/C=C/c1c(C)cc(OC)c(C)c1C` [etretinate], the effect observed in the data set on warts [9] was 80%.
`CC1=C(/C=C/C(C)=C/C=C/C(C)=C\C(=O)O)C(C)(C)CCC1` [isotretinoin]: in the data set with flat warts on the face [10], the effect is 73%.
As for `Oc1ccccc1` [phenol], the cure rate in the data set on warts [11] is recorded as 83%.
As for `CC(=O)C(=O)O` [pyruvic acid], the “recovery, patients” value in the data set on warts [12] (in combination with 0.5% 5-FU) was 80%; in the data set with warts [12] (pyruvic acid alone) it was 70%.
Turning to `O=C(O)c1ccccc1O` [salicylic acid], in the data set with warts [13] (setting [15]), the average cure rate is given as 49% and the “cure rate, range” value is reported as 0-69%. Besides, the “effect of the salicylic acid (qualitative studies)” value in the data set with warts [13] (in vivo) was “low”.
`CC1=C(/C=C/C(C)=C/C=C/C(C)=C/C(=O)O)C(C)(C)CCC1` [tretinoin]: the “effect achieved, patients” value with warts [14] is 3%.
As to bleomycin, the cure rate with wart (0.1-1 mg injected into the wart, compared with cryotherapy) is 92-97%. Further, the “pain after injection, duration” value with wart (main side effect) was “up to 48 hours”.
